# Measured values reported in article PMC4738305, “Metabolism and Disposition of Aditoprim in Swine, Broilers, Carp and Rats” (Scientific Reports, 2016).
# Experiment: Tissue distribution and elimination of total radioactivity (total residues) after oral ^3H-ADP for 7 d
# Format: in vivo, broilers
# Design: Elimination kinetics Ke: unit not given here
# Conditions: for Elimination kinetics Ke / Elimination kinetics t1/2 / Concentrations of total residues: broilers; for Elimination kinetics Ke / Elimination kinetics t1/2: 5 mg/kg b.w. 7 days
# Protocol: (0.1 Ci/g) through oral gavage for 7 consecutive days. All the animals were housed on the basis of their group in the cages or aquaria throughout the whole study period. A group of animals was slaughtered through exsanguination under diethyl ether inhalation of anesthesia in the period of 6 h, 1, 3, 7, 14, and 21 d after the administration. The blood samples were immediately collected into the heparinized tubes and was centrifuged at 1920 × g at 4 °C for 10 min to obtain the plasma. The tissues from the heart, liver, spleen, lung, kidney, craw (broilers), stomach, intestine, fat, skin, muscle, thymus, pancreas, bile, bladder, hair (scale for carp), genital gland, adrenal glands, swim bladder (carp), brain, lymph, and bursa (broilers) were carefully excised and collected. The tissues were thoroughly rinsed with the deionized water to remove the residuary blood, blotted to dryness, and finally to perform the homogenization. In order to avoid cross-contamination the dissecting instruments were washed during the tissue procurements. The blank tissues were collected in order to provide control matrices. The total radioactivity levels in each sample were determined through LSC. The samples extracted from the plasma, bile, and tissues of the liver, kidney, muscle, and fat/skin were analyzed through LC/MS-IT-TOF and v. ARC radiometric detection for metabolite profiling.
# Measurements of the total radioactivity in each sample were conducted by Packard Tri-Carb 2900 TR liquid scintillation counter (PerkinElmer Life and Analytical Sciences). The detection time was 10 min for two cycles. The scintillation counter data were automatically corrected for counting efficiency by instrument-stored quench curve which was drawn with a series of sealed quenched […] standards. The actual radioactivity of each sample was calculated by subtracting the background value form the mean radioactivity in two blank samples. All the samples were analyzed in duplicate if the sample size allowed this. If the results were differed by more than 10% from the mean value, the samples were reanalyzed. The samples with LSC counts less than 2-fold of the level of the running background were considered to contain insufficient radioactivity for reliable quantification.
# Aliquots of liquid samples (urine, plasma, bile and raised water, 200 μL) were mixed with 10 mL of Ultima Gold^TM scintillation fluid for the direct analysis by LSC. Aliquots of solid samples (feces and tissues, 200 mg) were digested overnight with 2 mL tissue solubilizer at 50 °C in a shaking water bath, followed by adding 200 μL of 0.1 mol/L EDTA-Na and 200 μL of 30% H2O2, and was bathed at 50 °C for 2 h to bleach. The obtained transparent liquid were mixed with 10 mL of scintillation fluid and finally were counted by LSC. The digestion efficiency was determined by using the blank samples spiked with ^3 H standard for digestion, and the measured radioactivity content in the digested samples were adjusted by using the digestion efficiency values.
# The concentrations of ADP and/or its metabolites were analyzed by using the following equation: C = L/(2.22 × 10^9 × RM), where C is the concentration of ADP or/and its metabolites (mg/kg), L is the LSC count (dpm), R is the specific activity of the administered dose (0.1 Ci/g), and M is the weight or volume of samples (kg or L). The results are expressed as mean ± SD. The elimination kinetics of terminal phase for ADP and its metabolites were conducted by using the WinNonlin linear regression program (Pharsight corporation, Statistical consultants, Inc., Kentucky, USA).
smiles,measurement,setting,value
[3H]c1c(Cc2cnc(N)nc2N)cc(OC)c(N(C)C)c1OC [^3H-ADP],concentration of total radioactivity,"broilers bile, within 6 h after oral ^3H-ADP for 7 d",25.2 ± 8.5 mg/kg
same,Elimination kinetics Ke,Bile,0.71
same,Elimination kinetics t1/2,Bile,25.9 h
same,Elimination kinetics Ke,Blood,0.31
same,Elimination kinetics t1/2,Blood,54 h
same,Elimination kinetics Ke,Brain,0.47
same,Elimination kinetics t1/2,Brain,35.5 h
same,Elimination kinetics Ke,Bursa of Fabricius,0.33
same,Elimination kinetics t1/2,Bursa of Fabricius,50.6 h
same,Elimination kinetics Ke,Fat,0.42
same,Concentrations of total residues,"Fat, time 0.25, 5 mg/kg b.w. 7 days",0.78 ± 0.32 mg/kg
same,Concentrations of total residues,"Fat, time 1, 5 mg/kg b.w. 7 days",0.43 ± 0.05 mg/kg
same,Concentrations of total residues,"Fat, time 3, 5 mg/kg b.w. 7 days",0.24 ± 0.02 mg/kg
same,Concentrations of total residues,"Fat, time 7, 5 mg/kg b.w. 7 days",0.04 ± 0.01 mg/kg
same,Elimination kinetics Ke,Feathers,0.28
same,Elimination kinetics t1/2,Feathers,60 h
same,Concentrations of total residues,"Feathers, time 0.25, 5 mg/kg b.w. 7 days",0.85 ± 0.17 mg/kg
same,Concentrations of total residues,"Feathers, time 1, 5 mg/kg b.w. 7 days",0.53 ± 0.12 mg/kg
same,Concentrations of total residues,"Feathers, time 3, 5 mg/kg b.w. 7 days",0.27 ± 0.03 mg/kg
same,Concentrations of total residues,"Feathers, time 7, 5 mg/kg b.w. 7 days",0.10 ± 0.01 mg/kg
same,Elimination kinetics Ke,Glandular stomach,0.59
same,Elimination kinetics t1/2,Glandular stomach,28.1 h
same,Concentrations of total residues,"Glandular stomach, time 1, 5 mg/kg b.w. 7 days",1.54 ± 0.36 mg/kg
same,Concentrations of total residues,"Glandular stomach, time 3, 5 mg/kg b.w. 7 days",0.27 ± 0.05 mg/kg
same,Concentrations of total residues,"Glandular stomach, time 7, 5 mg/kg b.w. 7 days",0.04 ± 0.00 mg/kg
same,Elimination kinetics Ke,Heart,0.29
same,Elimination kinetics t1/2,Heart,57.8 h
same,Elimination kinetics Ke,Kidney,0.30
same,Elimination kinetics Ke,Large Intestine,0.90
same,Elimination kinetics t1/2,Large Intestine,18.5 h
same,Concentrations of total residues,"Large Intestine, time 0.25, 5 mg/kg b.w. 7 days",6.29 ± 1.45 mg/kg
same,Concentrations of total residues,"Large Intestine, time 1, 5 mg/kg b.w. 7 days",1.25 ± 0.23 mg/kg
same,Concentrations of total residues,"Large Intestine, time 3, 5 mg/kg b.w. 7 days",0.12 ± 0.03 mg/kg
same,Concentrations of total residues,"Large Intestine, time 7, 5 mg/kg b.w. 7 days",0.01 ± 0.00 mg/kg
same,Elimination kinetics Ke,Liver,0.21
same,Elimination kinetics Ke,Lung,0.61
same,Elimination kinetics t1/2,Lung,27.4 h
same,Elimination kinetics Ke,Maw,0.53
same,Elimination kinetics t1/2,Maw,31.4 h
same,Elimination kinetics Ke,Muscle,0.23
same,Concentrations of total residues,"Muscle, time 0.25, 5 mg/kg b.w. 7 days",1.10 ± 0.44 mg/kg
same,Concentrations of total residues,"Muscle, time 1, 5 mg/kg b.w. 7 days",0.23 ± 0.10 mg/kg
same,Elimination kinetics Ke,Muscular stomach,0.46
same,Elimination kinetics t1/2,Muscular stomach,36.5 h
same,Concentrations of total residues,"Muscular stomach, time 0.25, 5 mg/kg b.w. 7 days",1.92 ± 0.57 mg/kg
same,Concentrations of total residues,"Muscular stomach, time 1, 5 mg/kg b.w. 7 days",0.69 ± 0.10 mg/kg
same,Concentrations of total residues,"Muscular stomach, time 3, 5 mg/kg b.w. 7 days",0.25 ± 0.03 mg/kg
same,Concentrations of total residues,"Muscular stomach, time 7, 5 mg/kg b.w. 7 days",0.04 ± 0.01 mg/kg
same,Elimination kinetics Ke,Pancreas,0.57
same,Elimination kinetics t1/2,Pancreas,29 h
same,Elimination kinetics Ke,Skin,0.43
same,Elimination kinetics t1/2,Skin,38.6 h
same,Concentrations of total residues,"Skin, time 0.25, 5 mg/kg b.w. 7 days",1.78 ± 0.42 mg/kg
same,Concentrations of total residues,"Skin, time 1, 5 mg/kg b.w. 7 days",0.74 ± 0.11 mg/kg
same,Concentrations of total residues,"Skin, time 3, 5 mg/kg b.w. 7 days",0.25 ± 0.02 mg/kg
same,Concentrations of total residues,"Skin, time 7, 5 mg/kg b.w. 7 days",0.05 ± 0.01 mg/kg
same,Elimination kinetics Ke,Small Intestine,0.75
same,Elimination kinetics t1/2,Small Intestine,22.1 h
same,Concentrations of total residues,"Small Intestine, time 0.25, 5 mg/kg b.w. 7 days",8.23 ± 0.93 mg/kg
same,Concentrations of total residues,"Small Intestine, time 1, 5 mg/kg b.w. 7 days",4.06 ± 1.32 mg/kg
same,Concentrations of total residues,"Small Intestine, time 3, 5 mg/kg b.w. 7 days",0.29 ± 0.04 mg/kg
same,Concentrations of total residues,"Small Intestine, time 7, 5 mg/kg b.w. 7 days",0.04 ± 0.00 mg/kg
same,Elimination kinetics Ke,Spleen,0.26
same,Elimination kinetics t1/2,Spleen,63.1 h
